From patent US9987242B2, “Treatment of Levodopa-induced Dyskinesias” (NORTHWESTERN UNIVERSITY, priority 2015, dated 2018)
“Also recorded” adds a separate entry of the source.

How the values were obtained:
Assay type in all cases: cell-based, mice
[1] = tested on: dSPN glutamatergic synapses; assay: Depotentiation of established LTP by low-frequency stimulation (2 Hz, 10 min) in dSPNs; settings: VU10010 5 μM
[2] = tested on: dSPN glutamatergic synapses; assay: Spike-timing-dependent LTD induction (post-pre pairing) in dSPNs, ex vivo corticostriatal slices, perforated-patch or whole-cell recording
Source text: Male C57Bl/6 and FVB mice expressing tdTomato or eGFP under control of either the Drd1 or Drd2 receptor regulatory elements were used. All the mice used for the study were hemizygous for these transgenes. For some experiments, D1-tdTomato BAC mice were crossed with a transgenic line expressing Cre recombinase under control of the ChAT promoter. All mice were 8-10 weeks of age before stereotaxic surgery. Animal use procedures were reviewed and approved by the Northwestern Institutional Animal Care and Use Committee.
Slices were then transferred to a holding chamber containing aCSF. After an incubation period at 34° C. for 30 min, the slices were then kept in the holding chamber at the room temperature for another 30 min before use.
Individual slices were transferred to a recording chamber and were continuously perfused (2-3 ml min^−1) with aCSF for the duration of the experiment. Experiments were performed in the dorsolateral striatum at elevated temperature (30-31° C.).
All the recordings were made using a MultiClamp 700 A amplifier, and signals were filtered at 2 kHz and digitized at 10 kHz. Data were excluded when the series resistance changed >20% over the time course of the experiment. […] Capacitance current was continuously monitored during perforation by applying a 5-10 mV pulse from a holding potential of −70 mV. The amplifier bridge circuit was adjusted to compensate for series resistance and continuously monitored during recordings. Electrode capacitance was also compensated. Data were excluded when the input resistance (Ri) changed >20% over the time course of the experiment.
Data analysis was conducted with Igor Pro 6 (Wavemetrics, Lake Oswego, Oreg.) and Clampfit 9 (Molecular Devices). EPSP amplitude was calculated from 50-60 sweeps immediately before the start of induction and 20-30 min after the end of induction. The change in EPSP amplitude was calculated by averaging EPSP values after the induction and normalized to the average baseline EPSP amplitude. Compiled data were expressed as mean±s.e.m. Statistical tests were performed using Excel (Microsoft, Redmond, Wash.) and SigmaStat (Systat, San Jose, Calif.). Non-parametric Mann-Whitney or Wilcoxon tests were used to assess the experiment results, using a probability threshold of 0.05.
To determine if M4Rs were modulating synaptic plasticity, a spike-timing-dependent plasticity (STDP) paradigm was used. […] Once identified, neurons were monitored and controlled with perforated-patch recording to preserve intracellular signaling mechanisms and to allow stable, long-term monitoring of synaptic strength (FIG. 1A).
Synaptic plasticity was induced by pairing local stimulation of glutamatergic afferent fibers with postsynaptic spikes evoked by short bursts of intracellular current injection that were repeated at 5 Hz (FIGS. 1B, 4A).

[3] = tested on: NMDAR-mediated Ca2+ transients in dSPN spines; assay: NMDAR-mediated Ca2+ transients in dSPN spines, two-photon glutamate uncaging and Fluo-5F imaging
Source text: dSPNs were identified by somatic tdTomato expression using two-photon excited fluorescence that was induced and detected using a Prairie Ultima laser scanning microscope system (Prairie Technologies). Fluorescent and bright-field images were viewed in register using a Dodt contrast detector system. Cells were patched using video microscopy with a Hitachi CCD camera and an Olympus 60×/1.0 NA lens. Green (Fluo 5F) and red (tdTomato; Alexa 568) signals were acquired using 810 nm excitation (Verdi/Mira laser). Following patch rupture the internal solution was allowed to equilibrate for 10-15 minutes before imaging. High magnification z-series of dendrite regions 50-100 μm from the soma were acquired with 0.072 μm2 pixels with 4 μs dwell time and 0.3 μm z-steps. […]
dSPNs were loaded with 25 μM Alexa 568 and 300 μM Fluo 5F via the internal recording solution, containing (in mM): 120 CsMeSO3, 5 NaCl, 10 TEA-Cl, 10 HEPES, 5 QX-314, 4 ATP-Mg and 0.3 GTP-Na. […] Changes in Fluo 5F fluorescence were averaged from 3 trials and measured as ΔF/Fo.
Glutamate uncaging was achieved using a Verdi/Mira (Coherent Laser Group, Santa Clara, Calif.) (Plotkin et al., 2014). […] Photolysis power was tuned via a third Pockels cell modulator (Con Optics, Danbury, Conn.) to achieve uEPSCs≤5 pA. uEPSC amplitudes were measured from averaged (3-5 repetitions) traces. […]

SMILES: Cc1cc(C)c2c(N)c(C(=O)NCc3ccc(Cl)cc3)sc2n1 [VU10010]
- depotentiation by LFS in dSPNs ([1]; dyskinetic (LID) mice, no D1R antagonist): restored depotentiation
- depotentiation by LFS in dSPNs ([1]; naive mice): Depotentiation also was achieved; also recorded: promoted the reversal of established LTP
- LTD induction in dSPNs (EPSP amplitude) ([2]; VU10010 5 μM, no D1R antagonist, 20 repetitions of pairing): did not lead to LTD induction
- LTD induction in dSPNs (EPSP amplitude) ([2]; VU10010 5 μM, no D1R antagonist, 60 repetitions of pairing): LTD induction was robust; also recorded: LTD was induced
- LTD induction in dSPNs (EPSP amplitude) ([2]; physostigmine 10 μM co-applied with VU10010 5 μM, 20 repetitions): LTD was induced
- decrease of NMDAR-mediated Ca2+ transients ([3]; SKF81297 3 μM, then muscarine and the M4R PAM co-applied, n=12): ~40%
- NMDAR-mediated Ca2+ transients ([3]; VU10010 5 μM, dSPNs from LID mice): reduced NMDAR-mediated Ca2+ transients
